From the CheMixHub viscosity set
Where “and” joins values, the source holds several entries; their conditions need not be identical. Equal values may be shown once.

Assay: xn = mol fraction of the nth substance listed

CC(=O)N(C)C + O
Conditions	viscosity
298.15 K, 101 kPa, x1 = 0.0203	1.214 mPa·s
298.15 K, 101 kPa, x1 = 0.025	1.265 mPa·s
298.15 K, 101 kPa, x1 = 0.0502	1.653 mPa·s
298.15 K, 101 kPa, x1 = 0.065	1.871 mPa·s
298.15 K, 101 kPa, x1 = 0.0703	1.982 mPa·s
298.15 K, 101 kPa, x1 = 0.1	2.467 mPa·s
298.15 K, 101 kPa, x1 = 0.1011	2.413 mPa·s
298.15 K, 101 kPa, x1 = 0.12	2.754 mPa·s
298.15 K, 101 kPa, x1 = 0.1203	2.797 mPa·s
298.15 K, 101 kPa, x1 = 0.1495	3.161 mPa·s
298.15 K, 101 kPa, x1 = 0.1497	3.223 mPa·s
298.15 K, 101 kPa, x1 = 0.1698	3.471 mPa·s
298.15 K, 101 kPa, x1 = 0.2003	3.774 mPa·s
298.15 K, 101 kPa, x1 = 0.2004	3.728 mPa·s
298.15 K, 101 kPa, x1 = 0.22	3.908 mPa·s
298.15 K, 101 kPa, x1 = 0.2497	4.023 mPa·s
298.15 K, 101 kPa, x1 = 0.2512	3.94 mPa·s
298.15 K, 101 kPa, x1 = 0.2701	4.04 mPa·s
298.15 K, 101 kPa, x1 = 0.3	3.99 mPa·s
298.15 K, 101 kPa, x1 = 0.3002	3.941 mPa·s
298.15 K, 101 kPa, x1 = 0.32	3.917 mPa·s
298.15 K, 101 kPa, x1 = 0.3501	3.692 mPa·s and 3.761 mPa·s
298.15 K, 101 kPa, x1 = 0.4002	3.426 mPa·s
298.15 K, 101 kPa, x1 = 0.4009	3.341 mPa·s
298.15 K, 101 kPa, x1 = 0.4503	3.059 mPa·s
298.15 K, 101 kPa, x1 = 0.5003	2.69 mPa·s
298.15 K, 101 kPa, x1 = 0.5018	2.606 mPa·s
298.15 K, 101 kPa, x1 = 0.5999	2.09 mPa·s
298.15 K, 101 kPa, x1 = 0.6031	1.995 mPa·s
298.15 K, 101 kPa, x1 = 0.6505	1.777 mPa·s
298.15 K, 101 kPa, x1 = 0.7	1.646 mPa·s
298.15 K, 101 kPa, x1 = 0.7005	1.592 mPa·s
298.15 K, 101 kPa, x1 = 0.755	1.419 mPa·s
298.15 K, 101 kPa, x1 = 0.8002	1.329 mPa·s
298.15 K, 101 kPa, x1 = 0.8048	1.284 mPa·s
298.15 K, 101 kPa, x1 = 0.8499	1.212 mPa·s
298.15 K, 101 kPa, x1 = 0.8501	1.185 mPa·s
298.15 K, 101 kPa, x1 = 0.8999	1.113 mPa·s
298.15 K, 101 kPa, x1 = 0.9049	1.083 mPa·s
298.15 K, 101.33 kPa, x2 = 0.1008	1.071 mPa·s
298.15 K, 101.33 kPa, x2 = 0.2042	1.286 mPa·s
298.15 K, 101.33 kPa, x2 = 0.3008	1.582 mPa·s
298.15 K, 101.33 kPa, x2 = 0.4068	2.047 mPa·s
298.15 K, 101.33 kPa, x2 = 0.5052	2.607 mPa·s
298.15 K, 101.33 kPa, x2 = 0.6026	3.31 mPa·s
298.15 K, 101.33 kPa, x2 = 0.7051	3.873 mPa·s
298.15 K, 101.33 kPa, x2 = 0.8054	3.612 mPa·s
298.15 K, 101.33 kPa, x2 = 0.9239	2.342 mPa·s
298.16 K, 101 kPa, x2 = 0.09	1.07 mPa·s
298.16 K, 101 kPa, x2 = 0.155	1.2 mPa·s
298.16 K, 101 kPa, x2 = 0.235	1.4 mPa·s
298.16 K, 101 kPa, x2 = 0.314	1.67 mPa·s
298.16 K, 101 kPa, x2 = 0.459	2.37 mPa·s
298.16 K, 101 kPa, x2 = 0.604	3.4 mPa·s
298.16 K, 101 kPa, x2 = 0.6607	3.75 mPa·s
298.16 K, 101 kPa, x2 = 0.741	3.97 mPa·s
298.16 K, 101 kPa, x2 = 0.7645	3.94 mPa·s
298.16 K, 101 kPa, x2 = 0.8044	3.65 mPa·s
298.16 K, 101 kPa, x2 = 0.8517	3.16 mPa·s
300.2 K, 101 kPa, x2 = 0.0298	1.005 mPa·s
300.2 K, 101 kPa, x2 = 0.0519	1.037 mPa·s
300.2 K, 101 kPa, x2 = 0.0694	1.062 mPa·s
300.2 K, 101 kPa, x2 = 0.0926	1.105 mPa·s
300.2 K, 101 kPa, x2 = 0.2763	1.564 mPa·s
300.2 K, 101 kPa, x2 = 0.436	2.3 mPa·s
300.2 K, 101 kPa, x2 = 0.555	3.112 mPa·s
300.2 K, 101 kPa, x2 = 0.6259	3.615 mPa·s
300.2 K, 101 kPa, x2 = 0.6897	3.957 mPa·s
300.2 K, 101 kPa, x2 = 0.7347	4.029 mPa·s
300.2 K, 101 kPa, x2 = 0.7737	3.926 mPa·s
300.2 K, 101 kPa, x2 = 0.8015	3.741 mPa·s
300.2 K, 101 kPa, x2 = 0.8783	2.782 mPa·s
300.2 K, 101 kPa, x2 = 0.9515	1.599 mPa·s
303.15 K, 101 kPa, x1 = 0.0203	1.076 mPa·s
303.15 K, 101 kPa, x1 = 0.0502	1.443 mPa·s
303.15 K, 101 kPa, x1 = 0.0703	1.716 mPa·s
303.15 K, 101 kPa, x1 = 0.1	2.112 mPa·s
303.15 K, 101 kPa, x1 = 0.1203	2.379 mPa·s
303.15 K, 101 kPa, x1 = 0.1497	2.719 mPa·s
303.15 K, 101 kPa, x1 = 0.1698	2.915 mPa·s
303.15 K, 101 kPa, x1 = 0.2003	3.156 mPa·s
303.15 K, 101 kPa, x1 = 0.22	3.263 mPa·s
303.15 K, 101 kPa, x1 = 0.2497	3.357 mPa·s
303.15 K, 101 kPa, x1 = 0.2701	3.373 mPa·s
303.15 K, 101 kPa, x1 = 0.3	3.339 mPa·s
303.15 K, 101 kPa, x1 = 0.32	3.286 mPa·s
303.15 K, 101 kPa, x1 = 0.3501	3.169 mPa·s
303.15 K, 101 kPa, x1 = 0.4002	2.914 mPa·s
303.15 K, 101 kPa, x1 = 0.4503	2.628 mPa·s
303.15 K, 101 kPa, x1 = 0.5003	2.336 mPa·s
303.15 K, 101 kPa, x1 = 0.5999	1.852 mPa·s
303.15 K, 101 kPa, x1 = 0.7	1.484 mPa·s
303.15 K, 101 kPa, x1 = 0.8002	1.216 mPa·s
303.15 K, 101 kPa, x1 = 0.8499	1.114 mPa·s
308.15 K, 101 kPa, x1 = 0.065	1.428 mPa·s
308.15 K, 101 kPa, x1 = 0.1	1.767 mPa·s
308.15 K, 101 kPa, x1 = 0.1011	1.81 mPa·s
308.15 K, 101 kPa, x1 = 0.1495	2.307 mPa·s
308.15 K, 101 kPa, x1 = 0.2	2.629 mPa·s
308.15 K, 101 kPa, x1 = 0.2004	2.661 mPa·s
308.15 K, 101 kPa, x1 = 0.2512	2.79 mPa·s
308.15 K, 101 kPa, x1 = 0.3	2.763 mPa·s
308.15 K, 101 kPa, x1 = 0.3002	2.784 mPa·s
308.15 K, 101 kPa, x1 = 0.3501	2.667 mPa·s
308.15 K, 101 kPa, x1 = 0.4	2.479 mPa·s
308.15 K, 101 kPa, x1 = 0.4009	2.474 mPa·s
308.15 K, 101 kPa, x1 = 0.5018	1.929 mPa·s
308.15 K, 101 kPa, x1 = 0.6	1.694 mPa·s
308.15 K, 101 kPa, x1 = 0.6031	1.568 mPa·s
308.15 K, 101 kPa, x1 = 0.6505	1.424 mPa·s
308.15 K, 101 kPa, x1 = 0.7005	1.305 mPa·s
308.15 K, 101 kPa, x1 = 0.755	1.183 mPa·s
308.15 K, 101 kPa, x1 = 0.8048	1.085 mPa·s
308.15 K, 101 kPa, x1 = 0.8501	1.003 mPa·s
308.15 K, 101 kPa, x1 = 0.9049	0.922 mPa·s
318.15 K, 101 kPa, x1 = 0.025	0.784 mPa·s
318.15 K, 101 kPa, x1 = 0.065	1.106 mPa·s
318.15 K, 101 kPa, x1 = 0.1011	1.387 mPa·s
318.15 K, 101 kPa, x1 = 0.12	1.533 mPa·s
318.15 K, 101 kPa, x1 = 0.1495	1.718 mPa·s
318.15 K, 101 kPa, x1 = 0.2004	1.944 mPa·s
318.15 K, 101 kPa, x1 = 0.2512	2.05 mPa·s
318.15 K, 101 kPa, x1 = 0.3002	2.056 mPa·s
318.15 K, 101 kPa, x1 = 0.3501	1.986 mPa·s
318.15 K, 101 kPa, x1 = 0.4009	1.853 mPa·s
318.15 K, 101 kPa, x1 = 0.5018	1.553 mPa·s
318.15 K, 101 kPa, x1 = 0.6031	1.274 mPa·s
318.15 K, 101 kPa, x1 = 0.6505	1.178 mPa·s
318.15 K, 101 kPa, x1 = 0.7005	1.085 mPa·s
318.15 K, 101 kPa, x1 = 0.755	0.999 mPa·s
318.15 K, 101 kPa, x1 = 0.8048	0.932 mPa·s
318.15 K, 101 kPa, x1 = 0.8501	0.868 mPa·s
318.15 K, 101 kPa, x1 = 0.9049	0.803 mPa·s

CC(O)CN(C)C (stereo not drawn) + O
viscosity [mPa·s], 101 kPa
Conditions	293.15 K	303.15 K	308.15 K	313.15 K	318.15 K	323.15 K
x1 = 0.05	–	2.279	1.935	1.656	1.441	1.264
x1 = 0.0997	–	4.278	3.466	2.852	2.393	2.027
x1 = 0.1	7.22	4.74	–	–	–	2.15
x1 = 0.1507	–	5.905	4.691	3.78	3.11	2.592
x1 = 0.2001	9.89	6.37	–	4.08	–	2.82
x1 = 0.2021	–	6.775	5.334	4.263	3.485	2.881
x1 = 0.2501	–	–	5.478	4.372	3.562	2.935
x1 = 0.3003	9.87	6.34	–	4.01	–	2.8
x1 = 0.3013	–	6.703	5.288	4.227	3.449	2.847
x1 = 0.3507	–	6.218	4.934	–	3.249	2.692
x1 = 0.3998	8.61	5.52	–	3.49	–	2.47
x1 = 0.4013	–	5.613	4.485	3.628	2.989	–
x1 = 0.4578	–	4.875	3.936	3.213	2.674	–
x1 = 0.4999	6.61	4.37	–	2.8	–	2.01
x1 = 0.5049	–	4.294	3.499	2.882	2.426	–
x1 = 0.6	4.76	3.18	–	2.17	–	1.62
x1 = 0.6009	–	3.285	2.747	2.294	1.955	–
x1 = 0.7002	3.38	2.31	–	1.69	–	1.32
x1 = 0.7054	–	2.482	2.111	1.807	1.57	–
x1 = 0.7955	–	1.957	1.697	1.479	1.305	–
x1 = 0.8	2.47	1.83	–	1.4	–	1.11
x1 = 0.8905	–	1.561	1.375	1.218	1.092	–
x1 = 0.9001	1.94	1.5	–	1.17	–	0.95
x1 = 0.9564	–	1.347	1.201	1.077	0.973	–
